Experimental data taken from US12110293B2, “Substituted triazolo quinoxaline derivatives” (GRÜNENTHAL GMBH, priority 2018, dated 2024).

Target: T1, glucocorticoid receptor (Homo sapiens, UniProt P04150)
T1 construct: expressed in transfected cells
T1 sequence (P04150 524-758 limits assumed): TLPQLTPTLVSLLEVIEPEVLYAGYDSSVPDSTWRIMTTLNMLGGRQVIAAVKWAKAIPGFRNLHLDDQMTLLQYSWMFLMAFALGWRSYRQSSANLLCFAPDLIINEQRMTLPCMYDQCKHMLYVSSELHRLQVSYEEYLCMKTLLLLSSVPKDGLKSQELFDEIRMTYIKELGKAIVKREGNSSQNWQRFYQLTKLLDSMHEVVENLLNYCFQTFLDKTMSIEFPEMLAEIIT
Assay: Agonistic mode of action on the glucocorticoid receptor (CHO-Gal4/GR luciferase reporter cell line)
Assay type: cell-based
Conditions: range class observed in the agonistic assay or the antagonistic assay (CHO-Gal4/GR reporter cells); table does not say which mode applies per example
In short: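 Agonism measured as dose-dependent luciferase luminescence (FLIPR Tetra) from a GAL4-UAS reporter driven by GAL4 DBD fused to GR ligand-binding domain in stable CHO cells. Eight half-log doses, 10 μM to 0.003 μM final in 0.5% DMSO, quadruplicate, on cells seeded 24 h earlier at 5000/well; EC50 derived.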

SMILES	IC50 or EC50 (agonist or antagonist mode not specified)
COc1cc2c(c(C)c1-c1cc(F)cc3c(C)c[nH]c13)-n1c(C)nnc1C(C)(C)N2 [Example 345, 8-(5-Fluoro-3-methyl-1H-indol-7-yl)-7-methoxy-1,4,4,9-tetramethyl-5H-[1,2,4]triazolo[4,3-a]quinoxaline]	100 to 1000 nM
CCS(=O)(=O)n1ccc2c(-c3c(F)cc4c(c3C)-n3c(C)nnc3C(C)(C)N4)cccc21 [Example 372, 8-[1-(Ethylsulfonyl)-1H-indol-4-yl]-7-fluoro-1,4,4,9-tetramethyl-5H-[1,2,4]triazolo[4,3-a]quinoxaline]	< 100 nM
Cc1nnc2n1-c1c(cc(F)c(-c3cccc4c3ccn4CCNC(=O)C(C)(F)F)c1F)NC2(C)C [Example 229, N-[2-[4-(7,9-Difluoro-1,4,4-trimethyl-5H-[1,2,4]triazolo[4,3-a]quinoxalin-8-yl)-1H-indol-1-yl]-ethyl]-2,2-difluoro-propionamide]	1000 to 15000 nM
Cc1c(-c2cccc3c2cnn3S(C)(=O)=O)ccc2c1-n1c(C)nnc1C(C)(C)N2 [Example 457, 1,4,4,9-Tetramethyl-8-(1-methylsulfonyl-1H-indazol-4-yl)-5H-[1,2,4]triazolo[4,3-a] quinoxaline]	100 to 1000 nM
CCS(=O)(=O)n1ccc2c(-c3c(OC)cc4c(c3C(F)(F)F)-n3c(C)nnc3C(C)(C)N4)cc(F)cc21 [Example 369, 8-[1-(Ethylsulfonyl)-6-fluoro-1H-indol-4-yl]-7-methoxy-1,4,4-trimethyl-9-(trifluoromethyl)-5H-[1,2,4]triazolo[4,3-a]quinoxaline]	100 to 1000 nM
Cc1c(-c2cccc3c2ccn3C)c(Cl)cc2c1-n1c(C)nnc1C(C)(C)N2 [Example 488, 7-Chloro-1,4,4,9-tetramethyl-8-(1-methyl-1H-indol-4-yl)-5H-[1,2,4]triazolo[4,3-a]quinoxaline]	100 to 1000 nM
Cc1c(-c2cc(F)cc3c(C)c[nH]c23)c(OC(F)(F)F)cc2c1-n1c(C)nnc1C(C)(C)N2 [Example 406, 8-(5-Fluoro-3-methyl-1H-indol-7-yl)-1,4,4,9-tetramethyl-7-(trifluoromethyloxy)-5H-[1,2,4]triazolo[4,3-a]quinoxaline]	100 to 1000 nM
CCS(=O)(=O)n1ccc2c(-c3c(OC)cc4c(c3C(F)(F)F)-n3c(C)nnc3C(C)(C)N4)cccc21 [Example 371, 8-[1-(Ethylsulfonyl)-1H-indol-4-yl]-7-methoxy-1,4,4-trimethyl-9-(trifluoromethyl)-5H-[1,2,4]triazolo[4,3-a]quinoxaline]	100 to 1000 nM
Cc1nnc2n1-c1c(cc(F)c(-c3cccc4[nH]ccc34)c1C(F)(F)F)NC2(C)C [Example 467, 7-Fluoro-8-(1H-indol-4-yl)-1,4,4-trimethyl-9-(trifluoromethyl)-5H-[1,2,4]triazolo[4,3-a]quinoxaline]	< 100 nM
Cc1c(-c2ccc(F)c3[nH]ccc23)c(Cl)cc2c1-n1c(C)nnc1C(C)(C)N2 [Example 506, 7-Chloro-8-(7-fluoro-1H-indol-4-yl)-1,4,4,9-tetramethyl-5H-[1,2,4]triazolo[4,3-a]quinoxaline]	100 to 1000 nM
Cc1nnc2n1-c1c(cc(F)c(-c3cc(F)cc4[nH]c(C#N)cc34)c1F)NC2(C)C [Example 6, 4-(7,9-difluoro-1,4,4-trimethyl-4,5-dihydro-[1,2,4]triazolo[4,3-a]quinoxalin-8-yl)-6-fluoro-1H-indole-2-carbonitrile]	1000 to 15000 nM
COCCn1ccc2c(-c3c(Cl)cc4c(c3F)-n3c(C)nnc3C(C)(C)N4)cccc21 [Example 280, 7-Chloro-9-fluoro-8-[1-(2-methoxy-ethyl)-1H-indol-4-yl]-1,4,4-trimethyl-5H-[1,2,4]triazolo[4,3-a]quinoxaline]	1000 to 15000 nM
COc1c(-c2cccc3c2cnn3C)c(F)cc2c1-n1c(C)nnc1C(C)(C)N2 [Example 264, 7-Fluoro-9-methoxy-1,4,4-trimethyl-8-(1-methyl-1H-indazol-4-yl)-5H-[1,2,4]triazolo[4,3-a]quinoxaline]	100 to 1000 nM
Cc1c(-c2cccc3c2ccn3S(C)(=O)=O)c(OC(F)F)cc2c1-n1c(C)nnc1C(C)(C)N2 [Example 318, 7-(Difluoro-methoxy)-1,4,4,9-tetramethyl-8-(1-methylsulfonyl-1H-indol-4-yl)-5H-[1,2,4]triazolo[4,3-a]quinoxaline]	100 to 1000 nM

Now from value to compound:

IC50 or EC50 (agonist or antagonist mode not specified)	SMILES
100 to 1000 nM	COc1c(-c2cccc3c2ccn3CC(F)F)c(F)cc2c1-n1c(C)nnc1C(C)(C)N2 [Example 397, 8-[1-(2,2-Difluoro-ethyl)-1H-indol-4-yl]-7-fluoro-9-methoxy-1,4,4-trimethyl-5H-[1,2,4]triazolo[4,3-a]quinoxaline]
< 100 nM	Cc1nnc2n1-c1c(cc(F)c(-c3cc(F)cc4c3ccn4S(C)(=O)=O)c1C(F)(F)F)NC2(C)C [Example 37, 7-fluoro-8-(6-fluoro-1-(methylsulfonyl)-1H-indol-4-yl)-1,4,4-trimethyl-9-(trifluoromethyl)-4,5-dihydro-[1,2,4]triazolo[4,3-a]quinoxaline]
100 to 1000 nM	COCCn1ccc2c(-c3c(F)cc4c(c3F)-n3c(C)nnc3C(C)(C)N4)cccc21 [Example 204, 7,9-Difluoro-8-[1-(2-methoxy-ethyl)-1H-indol-4-yl]-1,4,4-trimethyl-5H-[1,2,4]triazolo[4,3-a]quinoxaline]
100 to 1000 nM	Cc1c[nH]c2c(-c3c(Cl)cc4c(c3F)-n3c(C)nnc3C(C)(C)N4)cccc12 [Example 272, 7-Chloro-9-fluoro-1,4,4-trimethyl-8-(3-methyl-1H-indol-7-yl)-5H-[1,2,4]triazolo[4,3-a]quinoxaline]
100 to 1000 nM	Cc1nnc2n1-c1c(cc(F)c(-c3cccc4cc[nH]c34)c1F)NC2(C)C [Example 9, 7,9-difluoro-8-(1H-indol-7-yl)-1,4,4-trimethyl-4,5-dihydro-[1,2,4]triazolo[4,3-a]quinoxaline]
< 100 nM	CCc1c(-c2cc(F)cc3c2cnn3S(C)(=O)=O)c(F)cc2c1-n1c(C)nnc1C(C)(C)N2 [Example 52, 9-Ethyl-7-fluoro-8-(6-fluoro-1-methylsulfonyl-1H-indazol-4-yl)-1,4,4-trimethyl-5H-[1,2,4]triazolo[4,3-a]quinoxaline]
< 100 nM	Cc1c(-c2cccc3c2ccn3C2CC2)c(Cl)cc2c1-n1c(C)nnc1C(C)(C)N2 [Example 533, 7-Chloro-8-(1-cyclopropyl-1H-indol-4-yl)-1,4,4,9-tetramethyl-5H-[1,2,4]triazolo[4,3-a] quinoxaline]
< 100 nM	CC#CCc1nnc2n1-c1c(cc(F)c(-c3cccc4c(C)c[nH]c34)c1F)NC2(C)C [Example 70, 1-(but-2-yn-1-yl)-7,9-difluoro-4,4-dimethyl-8-(3-methyl-1H-indol-7-yl)-4,5-dihydro-[1,2,4]triazolo[4,3-a]quinoxaline]
100 to 1000 nM	Cc1nnc2n1-c1c(cc(F)c(-c3cccc4c3ccn4CC(F)F)c1F)NC2(C)C [Example 253, 8-[1-(2,2-Difluoro-ethyl)-1H-indol-4-yl]-7,9-difluoro-1,4,4-trimethyl-5H-[1,2,4]triazolo[4,3-a]quinoxaline]
1000 to 15000 nM	CCc1nnc2n1-c1c(cc(F)c(-c3cccc4c(C#N)c[nH]c34)c1F)NC2(C)C [Example 12, 7-(T-ethyl-7,9-difluoro-4,4-dimethyl-4,5-dihydro-[1,2,4]triazolo[4,3-a]quinoxalin-8-yl)-1H-indole-3-carbonitrile]
100 to 1000 nM	Cc1c[nH]c2c(-c3c(F)cc4c(c3F)-n3c(Cc5cccnc5)nnc3C(C)(C)N4)cc(F)cc12 [Example 73, 7,9-Difluoro-8-(5-fluoro-3-methyl-1H-indol-7-yl)-4,4-dimethyl-1-(pyridin-3-yl-methyl)-5H-[1,2,4]triazolo[4,3-a]quinoxaline]
1000 to 15000 nM	Cc1c(-c2cccc3c(C)n[nH]c23)c(F)cc2c1-n1c(C)nnc1C(C)(C)N2 [Example 361, 7-Fluoro-1,4,4,9-tetramethyl-8-(3-methyl-1H-indazol-7-yl)-5H-[1,2,4]triazolo[4,3-a]quinoxaline]
100 to 1000 nM	COc1cc(-c2c(F)cc3c(c2C)-n2c(C)nnc2C(C)(C)N3)c2ccn(S(C)(=O)=O)c2c1 [Example 537, 7-Fluoro-8-(6-methoxy-1-methylsulfonyl-1H-indol-4-yl)-1,4,4,9-tetramethyl-5H-[1,2,4] triazolo[4,3-a]quinoxaline]
100 to 1000 nM	COc1c(-c2cccc3[nH]ncc23)c(F)cc2c1-n1c(C)nnc1C(C)(C)N2 [Example 490, 7-Fluoro-8-(1H-indazol-4-yl)-9-methoxy-1,4,4-trimethyl-5H-[1,2,4]triazolo[4,3-a]quinoxaline]
< 100 nM	Cc1c[nH]c2c(-c3ccc4c(c3C(F)(F)F)-n3c(C)nnc3C(C)(C)N4)cc(F)cc12 [Example 507, 8-(5-Fluoro-3-methyl-1H-indol-7-yl)-1,4,4-trimethyl-9-(trifluoro-methyl)-5H-[1,2,4]triazolo[4,3-a] quinoxaline]
1000 to 15000 nM	Cc1c(-c2cccc3c2ccn3S(C)(=O)=O)c(Cl)cc2c1-n1c(C)nnc1C(C)(C)N2 [Example 317, 7-Chloro-1,4,4,9-tetramethyl-8-(1-methylsulfonyl-1H-indol-4-yl)-5H-[1,2,4]triazolo[4,3-a]quinoxaline]
